This passage reports inhibition results from ChEMBL document CHEMBL1159296, “A Revised Structure for Rhinacanthone” (1995).

Structures are written as SMILES.

The test system of the test is Pyricularia oryzae. Briefly: Antifungal activity against Pyricularia oryzae assessed as inhibition of spore germination at 10 ppm. The format is functional.

For orientation: inhibition means the share of the control response that was lost under treatment. For the molecule `CC1(C)COC2=C(C1)C(=O)C(=O)c1ccccc12` [RHINACANTHONE], the inhibition at 10 ppm was 100%.
